Where a name gives a salt, the structure may show the parent alone. Read-outs that look alike come from different tables or passages of the source.
Tests used:
[1] = system: BJ (human foreskin fibroblasts); test: Calcein AM cytotoxicity, BJ; conditions: read-out: Cytotoxicity IC50, BJ; 72 hours incubation, Calcein AM; highest concentration […]
Description: (§1) One of the parameters used, as the basis for cytotoxicity assays, is the metabolic activity of viable cells. For example, a microtiter assay, which uses the Calcein AM, is now widely used to quantitate cell proliferation and cytotoxicity. […] Because only metabolically active cells cleave Calcein AM, these assays detect viable cells exclusively. The quantity of reduced Calcein AM corresponds to the number of vital cells in the culture.
(§2) Mouse fibroblasts NIH3T3; mouse immortalized bone marrow macrophages B2.4 and B10A.4, and BJ (human foreskin fibroblasts) were used for routine screening of compounds. The cells were maintained in Nunc/Corning 80 cm^2 plastic tissue culture flasks and cultured in cell culture medium (DMEM with 5 g/l glucose, 2 mM glutamine, 100 U/ml penicillin, 100 μg/ml streptomycin, 10% fetal calf serum and sodium bicarbonate).
(§3) The cell suspensions that were prepared and diluted according to the particular cell type and the expected target cell density (2.500-30.000 cells per well based on cell growth characteristics) were added by pipette (80 μl) into 96/well microtiter plates. Inoculates were allowed a pre-incubation period of 24 hours at 37° C. and 5% CO2 for stabilisation. Four-fold dilutions of the intended test concentration were added at time zero in 20 μl aliquots to the microtiter plate wells. Usually, the compound tested was evaluated at six 4-fold dilutions. […] All compound concentrations were examined in duplicates. Incubations of cells with the tested compounds lasted for 72 hours at 37° C., in 5% CO2 atmosphere and 100% humidity. At the end of the incubation period, the cells were assayed by using Calcein AM. Ten microliters of the stock solution were pipetted into each well and incubated for 1 hour. Fluorescence (FD) was measured with the Labsystem FIA Reader Fluoroscan Ascent (UK).

B10A.4 [2] = test: Calcein AM cytotoxicity, B10A.4 (first column); conditions: read-out: Cytotoxicity IC50, B10A.4; 72 hours incubation, Calcein AM; highest concentration […]
Description: as §1, §2, §3

NIH3T3 fibroblasts = test: Peroxidation of membrane lipids, MDA by TBA method; assay type: cell-based, mouse; conditions: FW = fresh weight
Experimental: A typical symptom associated with aging is the direct consequence of increased concentrations of reactive oxygen species and lipid peroxidation. […] MDA levels were measured using thiobarbituric acid (TBA method). […] The crude extract was centrifuged at 10,000×g for 5 minutes and 100 μl aliquots of the supernatant were mixed with 100 μl of 0.5% (w/v) TBA containing 0.1% (w/v) trichloroacetic acid. The resulting solution was then incubated for 30 min at 95° C. The samples were rapidly cooled on ice and centrifuged for 5 minutes at 1000×g. […] The newly prepared derivatives of the general formula thus have a protective function against the negative effects of reactive oxygen species that accumulate strongly in the tissues.

NIH-3T3 [3] = test: Calcein AM cytotoxicity, NIH-3T3; conditions: read-out: Cytotoxicity IC50, NIH-3T3; 72 hours incubation, Calcein AM; highest concentration […]
Description: as §1, §2, §3

NIH-3T3 [4] = system: NIH-3T3
Description: as §1, §2, §3

B10A.4 [5] = system: B10A.4
Description: as §1, §2, §3

[6] = system: BJ (human foreskin fibroblasts)
Description: as §1, §2, §3

[7] = Radical scavenging activity determined by ORAC; conditions: relative to trolox; Mean ± SD (n = 3)
Experimental: The ability of compounds to scavenge free radicals in vitro was determined by Oxygen Radical Absorbance Capacity (ORAC) method. In brief, fluorescein (100 μl, […]) and 25 μl of compound solution were added into each working well in a 96-well microplate preincubated at 37° C. Thereafter, 25 μL of 250 mM AAPH was quickly added, microplate was shaken for 5 s and the fluorescence (Ex. 485 nm, Em. 510 nm) was read every 3 min over 90 min by using microplate reader Infinite 200 (TECAN, Switzerland). The net area under the curve was used to express antioxidant activity relative to trolox which was used as a standard.

[8] = Calcein AM cytotoxicity, BJ; conditions: human, BJ foreskin fibroblasts
Description: as §1, §2, §3

[9] = Calcein AM cytotoxicity, B10A.4 (first column); conditions: mouse, B10A.4 immortalized bone marrow macrophages
Description: as §1, §2, §3

[10] = Calcein AM cytotoxicity, NIH-3T3; conditions: mouse, NIH-3T3 fibroblasts
Description: as §1, §2, §3

[11] = system: Rabbits (New Zealand Albino breed); conditions: New Zealand Albino, rabbit, in vivo, 4 h
Experimental: The test substance 114 was tested in Animal skin irritation test. Rabbits (New Zealand Albino breed) were used for the test. The test was performed according to ČSN EN ISO 10993 (Březen 2014): Biologické hodnoceni zdravotnických prostředků—část 10: Zkoušky dráždivosti a senzibilizace kůže, článek 6.3 Zkouška dráždivosti na zviřatech (Biological evaluation of medical devices—Part 10: Tests for irritation and delayed-type hypersensitivity). A dose 0.5 g of the test substance was applied to the skin of the back on each side of each rabbit. […] At first the one rabbit (test animal. No. 16) was used. Two other rabbits (rabbit No. 17 and No. 18) were used in confirmatory test. At the end of the contact time (4 hours) the dressings were removed and animals were examined for signs of erythema and oedema, and the response was evaluated at 1, 24, 48 and 72 hours afterpatches removal.

| SMILES | MDA (NIH3T3 fibroblasts) | IC50 (NIH-3T3 [4]) | IC50 (B10A.4 [5]) | IC50 [6] | also measured |
| --- | --- | --- | --- | --- | --- |
| CN(C)c1nc(NCc2ccco2)c2ncn(C3CCO3)c2n1 (centres unmarked) [Compound 3] | 12.4 nmol/g FW |  |  |  | IC50 [1]: > 167 µM; IC50 (B10A.4 [2]): > 167 µM; IC50 (NIH-3T3 [3]): > 167 µM |
| CCN(CC)c1nc(NCc2ccccc2)c2ncn(C3CCO3)c2n1 (centres unmarked) [Compound 9] | 12.2 nmol/g FW |  |  |  | IC50 [1]: > 167 µM; IC50 (B10A.4 [2]): > 167 µM; IC50 (NIH-3T3 [3]): > 167 µM |
| CNc1nc(NCc2cc(C)co2)c2ncn(C3CCCO3)c2n1 (centres unmarked) [Compound 39] | 11.4 nmol/g FW | > 167 µM | > 167 µM | > 167 µM |  |
| CCN(CC)c1nc(NCc2ccc(C)o2)c2ncn(C3CCCO3)c2n1 (centres unmarked) [Compound 47] | 12.5 nmol/g FW | > 167 µM | > 167 µM | > 167 µM |  |
| COc1coc(CNc2nc(NCCN(C)C)nc3c2ncn3C2CCCO2)c1 (centres unmarked) [Compound 58] | 11.4 nmol/g FW | > 167 µM | > 167 µM | > 167 µM |  |
| CNc1nc(NCc2ccc(OC)o2)c2ncn(C3CCCO3)c2n1 (centres unmarked) [Compound 59] | 11.5 nmol/g FW | > 167 µM | > 167 µM | > 167 µM |  |
| CCNc1nc(NCc2ccc(OC)o2)c2ncn(C3CCCO3)c2n1 (centres unmarked) [Compound 60] | 12.2 nmol/g FW | > 167 µM | > 167 µM | > 167 µM |  |
| CNc1nc(NCc2ccccc2)c2ncn(C3CCCO3)c2n1 (centres unmarked) [Compound 64, 2-(Methylamino)-6-benzylamino-9-(tetrahydrofuran-2-yl)-9H-purine] |  |  |  |  | ORAC (compound/trolox) [7]: 0.24 ± 0.001 |
| CN(C)c1nc(NCc2cccc(O)c2)c2ncn(C3CCCO3)c2n1 (centres unmarked) [Compound 71, 2-(Dimethylamino)-6-(3-hydroxybenzylamino)-9-(tetrahydrofuran-2-yl)-9H-purine] |  |  |  |  | ORAC (compound/trolox) [7]: 5.212 ± 0.238 |
| CCNc1nc(NCc2ccc(O)cc2)c2ncn(C3CCCO3)c2n1 (centres unmarked) [Compound 75] | 11.7 nmol/g FW | > 167 µM | > 167 µM | > 167 µM |  |
| CN(C)c1nc(NCc2ccc(O)cc2)c2ncn(C3CCCO3)c2n1 (centres unmarked) [Compound 76, 2-(Dimethylamino)-6-[(4-hydroxybenzyl)amino]-9-(tetrahydrofuran-2-yl)-9H-purine] |  |  |  |  | ORAC (compound/trolox) [7]: 0.192 ± 0.005 |
| CCN(CC)c1nc(NCc2cccc(OC)c2)c2ncn(C3CCCO3)c2n1 (centres unmarked) [Compound 82] | 10.9 nmol/g FW | > 167 µM | > 167 µM | > 167 µM |  |
| CNc1nc(NCc2ccc(OC)cc2)c2ncn(C3CCCO3)c2n1 (centres unmarked) [Compound 84, 2-(Methylamino)-6-[(4-methoxybenzyl)amino]-9-(tetrahydrofuran-2-yl)-9H-purine] | 10.6 nmol/g FW |  |  |  | IC50 at 72 h [8]: > 167 µM; IC50 at 72 h [9]: > 167 µM; IC50 at 72 h [10]: > 167 µM |
| CCNc1nc(NCc2ccc(OC)cc2)c2ncn(C3CCCO3)c2n1 (centres unmarked) [Compound 85] | 11.1 nmol/g FW | > 167 µM | > 167 µM | > 167 µM |  |
| CCN(CC)c1nc(NCc2ccc(OC)cc2)c2ncn(C3CCCO3)c2n1 (centres unmarked) [Compound 87] | 10.4 nmol/g FW | > 167 µM | > 167 µM | > 167 µM |  |
| COc1cc(CNc2nc(N(C)C)nc3c2ncn3C2CCCO2)ccc1O (centres unmarked) [Compound 89, 2-(Dimethylamino)-6-[(4-hydroxy-3-methoxybenzyl)amino]-9-(tetrahydrofuran-2-yl)-9H-purine] |  |  |  |  | ORAC (compound/trolox) [7]: 4.359 ± 0.183 |
| CCN(CC)c1nc(NCC=C(C)C)c2ncn(C3CCCO3)c2n1 (centres unmarked) [Compound 93] | 10.5 nmol/g FW | > 167 µM | > 167 µM | > 167 µM |  |

| SMILES | MDA (NIH3T3 fibroblasts) | IC50 (NIH-3T3 [4]) | IC50 (B10A.4 [5]) | IC50 [6] | also measured |
| --- | --- | --- | --- | --- | --- |
| C/C(=C\CNc1nc(NCCN(C)C)nc2c1ncn2C1CCCO1)CO (centres unmarked) [Compound 99] | 10.2 nmol/g FW | > 167 µM | > 167 µM | > 167 µM |  |
| CCNc1nc(NC/C=C(/C)CO)c2ncn(C3CCCO3)c2n1 (centres unmarked) [Compound 101] | 10.6 nmol/g FW | > 167 µM | > 167 µM | > 167 µM |  |
| CCN(CC)c1nc(NC/C=C(/C)CO)c2ncn(C3CCCO3)c2n1 (centres unmarked) [Compound 103] | 10.1 nmol/g FW | > 167 µM | > 167 µM | > 167 µM |  |
| C/C(=C/CNc1nc(NCCN(C)C)nc2c1ncn2C1CCCO1)CO (centres unmarked) [Compound 104] | 9.6 nmol/g FW | > 167 µM | > 167 µM | > 167 µM |  |
| CNc1nc(NCCC(C)CO)c2ncn(C3CCCO3)c2n1 (centres unmarked) [Compound 105] | 10.6 nmol/g FW | > 167 µM | > 167 µM | > 167 µM |  |
| CC(CO)CCNc1nc(N(C)C)nc2c1ncn2C1CCCO1 (centres unmarked) [Compound 107] | 10.3 nmol/g FW | > 167 µM | > 167 µM | > 167 µM |  |
| CCN(CC)c1nc(NCCC(C)CO)c2ncn(C3CCCO3)c2n1 (centres unmarked) [Compound 108] | 9.7 nmol/g FW | > 167 µM | > 167 µM | > 167 µM |  |
| CNc1nc(NCc2ccco2)c2ncn(C3CCCCO3)c2n1 (centres unmarked) [Compound 110, 2-(Methylamino)-6-furfurylamino-9-(tetrahydro-2H-pyran-2-yl)-9H-purine] |  |  |  |  | ORAC (compound/trolox) [7]: 0.205 ± 0.032 |
| CCNc1nc(NCc2ccco2)c2ncn(C3CCCCO3)c2n1 (centres unmarked) [Compound 111, 2-(ethylamino)-6-furfurylamino-9-(tetrahydro-2H-pyran-2-yl)-9H-purine] | 10.3 nmol/g FW |  |  |  | IC50 at 72 h [8]: > 167 µM; IC50 at 72 h [9]: > 167 µM; IC50 at 72 h [10]: > 167 µM |
| CCNc1nc(NCc2occc2C)c2ncn(C3CCCCO3)c2n1 (centres unmarked) [Compound 119] | 9.7 nmol/g FW |  |  |  | IC50 [1]: > 167 µM; IC50 (B10A.4 [2]): > 167 µM; IC50 (NIH-3T3 [3]): > 167 µM |
| Cc1coc(CNc2nc(NCCN(C)C)nc3c2ncn3C2CCCCO2)c1 (centres unmarked) [Compound 127] | 10.4 nmol/g FW |  |  |  | IC50 [1]: > 167 µM; IC50 (B10A.4 [2]): > 167 µM; IC50 (NIH-3T3 [3]): > 167 µM |
| CNc1nc(NCc2ccc(C)o2)c2ncn(C3CCCCO3)c2n1 (centres unmarked) [Compound 128, 2-(Methylamino)-6-[(5-methylfurfuryl)amino]-9-(tetrahydro-2H-pyran-2-yl)-9H-purine] |  |  |  |  | ORAC (compound/trolox) [7]: 0.461 ± 0.003 |
| Cc1ccc(CNc2nc(NCCN(C)C)nc3c2ncn3C2CCCCO2)o1 (centres unmarked) [Compound 132] | 10.7 nmol/g FW |  |  |  | IC50 [1]: > 167 µM; IC50 (B10A.4 [2]): > 167 µM; IC50 (NIH-3T3 [3]): > 167 µM |
| CN(C)c1nc(NCc2cccc(O)c2)c2ncn(C3CCCCO3)c2n1 (centres unmarked) [Compound 155, 2-(Dimethylamino)-6-[(3-hydroxybenzyl)amino]-9-(tetrahydro-2H-pyran-2-yl)-9H-purine] |  |  |  |  | ORAC (compound/trolox) [7]: 2.422 ± 0.107 |
| CN(C)c1nc(NCc2ccc(O)cc2)c2ncn(C3CCCCO3)c2n1 (centres unmarked) [Compound 160, 2-(Dimethylamino)-6-[(4-hydroxybenzyl)amino]-9-(tetrahydro-2H-pyran-2-yl)-9H-purine] |  |  |  |  | ORAC (compound/trolox) [7]: 0.728 ± 0.016 |
| CCCCCCCCCCCCOS(=O)(=O)O [lauryl sulfate, reference compound] |  |  |  |  | Primary Irritation Index [11]: 1.67 |
| Oc1ccccc1CNc1ncnc2nc[nH]c12 [ortho-topolin, reference compound] |  | 94.1 µM |  | 108 µM |  |

From patent US11643413B2, “9-(2-oxacycloalkyl)-9H-purine-2,6-diamine derivatives and their use for the treatment of skin disorders” (UNIVERZITA PALACKEHO V OLOMOUCI, priority 2017, dated 2023)
